Consider one molecule from US6794396B2, “Substituted pyridines useful for inhibiting cholesteryl ester transfer protein activity” (Pharmacia Corporation, priority 1998, dated 2004).

Assay [1] addresses T1, CETP in human plasma or serum pool (Homo sapiens, UniProt P11597).
T1 construct: from tissue; host or cells: pooled human EDTA plasma or serum from healthy volunteers
T1 sequence (P11597 18-493): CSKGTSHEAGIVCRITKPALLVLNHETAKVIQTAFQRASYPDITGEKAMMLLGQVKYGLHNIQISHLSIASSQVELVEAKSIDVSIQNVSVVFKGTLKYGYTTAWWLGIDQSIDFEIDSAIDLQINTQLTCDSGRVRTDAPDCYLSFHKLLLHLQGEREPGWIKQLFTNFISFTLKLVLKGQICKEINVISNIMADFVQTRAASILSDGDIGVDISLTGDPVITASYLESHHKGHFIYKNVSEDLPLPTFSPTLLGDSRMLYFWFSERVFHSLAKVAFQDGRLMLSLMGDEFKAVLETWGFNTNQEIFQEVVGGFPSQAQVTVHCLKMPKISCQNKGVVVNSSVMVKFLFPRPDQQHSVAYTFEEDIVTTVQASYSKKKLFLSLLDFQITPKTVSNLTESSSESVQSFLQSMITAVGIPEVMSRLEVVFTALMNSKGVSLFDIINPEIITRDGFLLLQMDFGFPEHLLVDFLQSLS
Kind of assay: Whole serum CETP activity assay (tritiated cholesterol ester). The class given is biochemical. To be noted: 4 hours at 37° C. The method, then: Blood was obtained from healthy volunteers recruited from the personnel of Monsanto Company, Saint Louis, Mo. Blood was either collected in tubes containing EDTA (EDTA plasma pool) or in tubes without EDTA (spun to form the serum pool). The EDTA human plasma pool or human serum pool, previously stored at −20° C., was thawed at room temperature, and centrifuged for 5 minutes to remove any particulate matter. Tritiated HDL, radiolabeled in the cholesteryl ester moiety ([^3H]CE-HDL) as described by Morton and Zilversmit (J. Biol. Chem., 256, 11992-95 (1981) which is incorporated by reference herein), was added to the plasma or serum to a final concentration of (25 μg/ml cholesterol).
Inhibitor compounds were added to the plasma or serum as follows: Equal volumes of the plasma or serum containing the [^3H]CE-HDL (396 μl) were pipetted into micro tubes (Titertube®, Bio-Rad Laboratories, Hercules, Calif.). Compounds, usually dissolved as 20-50 mM stock solutions in DMSO, were serially diluted in DMSO (or an alternative solvent in some cases, such as dimethylformamide or ethanol). Four μl of each of the serial dilutions of inhibitor compounds or DMSO alone were then added to each of the plasma or serum tubes. The tubes were immediately mixed. Triplicate aliquots (100 μl) from each plasma or serum tube were then transferred to wells of 96-well round-bottomed polystyrene microtiter plates (Corning, Corning, N.Y.). Plates were sealed with plastic film and incubated at 37° C. for 4 hours.
Test wells contained plasma or serum with dilutions of inhibitor compounds. Control wells contained plasma or serum with DMSO alone. Blank wells contained plasma or serum with DMSO alone that were left in the micro tubes at 4° C. for the 4 hour incubation and were added to the microtiter wells at the end of the incubation period. VLDL and LDL were precipitated by the addition of 10 μl of precipitating reagent (1% (w/v) Dextran Sulfate (Dextralip50)/0.5M magnesium chloride, pH 7.4) to all wells. The wells were mixed on a plate mixer and then incubated at ambient temperature for 10 min. The plates were then centrifuged at 1000×g for 30 mins at 10° C. The supernatants (50 μl) from each well were then transferred to Picoplate™ 96 plate wells (Packard, Meriden, Conn.) containing […] Microscint™-40 (Packard, Meriden, Conn.). The plates were heat-sealed (TopSeal™-P, Packard, Meriden, Conn.) according to the manufacturers directions and mixed for 30 min.
Radioactivity was measured on a microplate scintillation counter (TopCount, Packard, Meriden, Conn.). […] The maximum percent transfer (in the control wells) was determined using the following equation: [formula]
The percent of control transfer determined in the wells containing inhibitor compounds was determined as follows: [formula]
IC50 values were then calculated from plots of % control versus concentration of inhibitor compound.

Assay [2] concerns the target T2, CETP (Homo sapiens, UniProt P11597).
T2 construct: made in house; host or cells: CHO cells (serum-free conditioned medium)
T2 sequence (P11597 18-493): T1 sequence (P11597 18-493)
Kind of assay: CETP activity in vitro: transfer of [3H]CE from HDL donor to LDL acceptor particles. The class given is biochemical. Conditions: Table 5, compounds of formula T-5; read-out: IC50. The gist of the method: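 Transfer of radiolabelled cholesteryl ester from HDL to LDL was followed over 2 h at 37 °C in Tris buffer (pH 7.4, 150 mM NaCl, 2 mM EDTA, 1% BSA), using CETP secreted by transfected CHO cells. Radioactivity in dextran sulfate/Mg-precipitated LDL was measured by scintillation counting, giving IC50.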

Assay [3] deals with CETP. As to the kind of experiment: Ex vivo CETP activity assay on serum of chronically infused hamsters. It counts as in vivo, golden Syrian hamster. An excerpt:
Chronic inhibition of CETP can be achieved by administration of Dimethyl 5,5′-dithiobis[2-difluoromethyl)-4-(2-methylpropyl)-6-(trifluoromethyl)-3-pyridinecarboxylate] (Compound 181) to hamsters using Alzet pump delivery of Compound 181 into the jugular veins of hamsters. Inhibition of CETP should lead to an increase in HDL cholesterol with a concomitant decrease in LDL cholesterol. This can be determined by filtering serum obtained at different time intervals after initiation of inhibitor infusion and quantitating the amount of cholesterol in the LDL and HDL peaks, respectively. In addition the activity of CETP in the serum can be assessed in an ex vivo CETP activity assay.
Serum cholesterol profiles were determined on pooled sera from each group. Total serum cholesterol and CETP activity were determined on individual serum samples. In hamsters administered Compound 181 chronically, there was a 30% reduction and 26% increase in LDL cholesterol and HDL cholesterol concentrations, respectively, compared to the vehicle group at Day 5. The decrease in LDL and increase in HDL persisted until Day 8 when the Alzet pump was exhausted. […] Therefore, it would appear that for every percent reduction in CETP activity determined by the ex vivo assay, there was a 2-3% decrease in LDL cholesterol or increase in HDL cholesterol concentrations.

pIC50: −log10 of the molar value.

`COC(=O)c1c(C(F)F)nc(C(F)(F)F)c(SSc2c(C(F)(F)F)nc(C(F)F)c(C(=O)OC)c2CC(C)C)c1CC(C)C` [Compound 181, Dimethyl 5,5′-Dithiobis[2-(difluoromethyl)-4-(2-methylpropyl)-6-(trifluoromethyl)-3-pyridinecarboxylate]]: the “IC50 whole serum CETP activity” value in assay [1] worked out at 16000 nM. Moreover, the negative-log IC50 (pIC50) at CETP [2] was 5.82. Further, in the assay on CETP [3] (Days 5 and 8), the “average reduction in CETP activity by ex vivo assay” value came to 10%. In addition, the “CETP activity by ex vivo assay” value in the assay with CETP [3] (day 12) was “return to vehicle control level”.

The pIC50 is the negative decadic logarithm of the IC50, by convention in mol/L.
